# Experimental data: patent publication US4320136A, “8-Aza-16,16-difluoroprostanoids” (E. I. Du Pont de Nemours and Company, priority 1980, dated 1982)
# Legend:
# [1] = system: necrosis and inflammation of the stomach caused by ethanol; experiment: protection of rat stomach from ethanol-caused necrosis and inflammation (cytoprotection, oral); type: in vivo, rat (fasted, male); settings: for ED50 / inhibition in vivo at 2 mg/kg: Rattus norvegicus; for ED50 / inhibition in vivo at 2 mg/kg / Percent Protection 2 mg/kg, at 1 hr: oral; for ED50: 50% protection, at peak time; for Peak Time: interval between compound and ethanol at which greatest protection is observed; for inhibition in vivo at 2 mg/kg: po, 1 h, read-out: Percent Protection 2 mg/kg, at 1 hr; for inhibition in vivo at 2 mg/kg / Percent Protection 2 mg/kg, at 1 hr: 1 hr between compound and ethanol; for cytoprotective effect (in words): rat, in vivo
# Experimental: Some differences in the cytoprotective properties of these optical isomers are indicated by data in Table I. Using a method similar to that of Robert [U.S. Pat. No. 4,097,603 (1978)], fasted, male rats were treated with 8-azaprostanoids orally and various times later they were treated orally with 1.0 ml of absolute ethanol. The rats were sacrificed after ethanol administration and the stomachs were removed, inspected, and rated. The ED50 values in Table I represent the doses of 8-aza-16,16-difluoroprostanoids that gave 50% protection from the necrosis and inflammation of the stomach caused by ethanol. Values for the natural prostaglandin E1 (PGE1) and for two known nonfluorinated 8-azaprostanoids are given for comparison.
# *"1 hr" refers to the one hour interval between administration of compoun
# and subsequent ethanol administration.
# **"Peak Time" refers to that interval between administration of compound
# and administration of ethanol at which greatest protection is observed.
# [2] = system: PGE1; experiment: PGE1 antagonist test on isolated rat stomach strips
# Excerpt: These PGE1 antagonist tests were run on isolated rat stomach strips.
# [3] = system: histamine-induced bronchoconstriction; experiment: aerosol histamine challenge test (histamine-induced bronchoconstriction); type: in vivo, guinea pig
# Experimental: As has been mentioned, compounds of this invention also show activity as potential drugs for controlling bronchial asthma. Using an aerosol histamine challenge test in guinea pigs [a modification of the method of M. E. Rosenthale et al, Experientia, 26, 119 (1970)], the ability of 8-aza-16,16-difluoroprostanoids administered by i.p. injection to protect against histamine-induced bronchoconstriction was measured. Using injections of 0.5 mg/kg and evaluating the guinea pigs 60 minutes after the injections, compound 6 gave 40% protection, compound 6l (15 RS) gave 39% protection, and compound 6d(15 RS) gave 14% protection. An oral dose of compound 8 at 5 mg/kg gave 80% protection at 2 hours.
# [4] = i.p. 0.5 mg/kg, 60 minutes after injection, 0.5 mg/kg
structure (smiles),measurement,setting,value
"CCCCCCC(F)(F)[C@H](O)/C=C/[C@H]1CCC(=O)N1CCCCCCC(=O)O [7l (15R), 7-[2-oxo-5(R)-5-(4,4-difluoro-3(R)-3-hydroxy-1n-dec-1(E)-enyl)-1-pyrrolidinyl]heptanoic acid]",ED50,[1],0.0007 mg/kg
same,Peak Time,[1],15 min
"CCCCCCC(F)(F)C(O)/C=C/C1CCC(=O)N1CCCCCCC(=O)OC(C)(C)C (racemic) [Compound 6, racemic tert-Butyl 7-[2-Oxo-5(RS)-5-(4,4-difluoro-3(RS)-3-hydroxy-1n-dec-1(E)-enyl)-1-pyrrolidinyl]-heptanoate]",inhibition in vivo at 2 mg/kg,[1],32%
same,cytoprotective effect (in words),[1],some cytoprotective activity
same,PGE1 antagonism (in words),[2],weaker PGE1 antagonist
same,protection against histamine-induced bronchoconstriction,"[3]; i.p. 0.5 mg/kg, 60 minutes after injection",40%
"CCCCC(F)(F)C(O)/C=C/C1CCC(=O)N1CCCCCCC(=O)OC(C)(C)C (racemic) [Compound 13, racemic t-Butyl 7-[2-Oxo-5(RS)-5-(4,4-difluoro-3(RS)-3-hydroxy-1-n-oct-1(E)-enyl)-1-pyrrolidinyl]heptanoate]",inhibition in vivo at 2 mg/kg,[1],66%
same,ED50,[1],0.8 mg/kg
same,Peak Time,[1],15 min
"CC(C)(C)OC(=O)CCCCCCN1C(=O)CCC1/C=C/C(O)C(F)(F)c1ccccc1 (racemic) [Compound 21, racemic tert-Butyl 7-[2-Oxo-5(RS)-5-(4,4-difluoro-3(RS)-hydroxy-4-phenyl-1n-but-1(E)-enyl)-1-pyrrolidinyl]heptanoate]",inhibition in vivo at 2 mg/kg,[1],68%
"CCCCCCC(F)(F)C(O)C=CC1CCC(=O)N1CCCCCCC(=O)OC(C)(C)C (single isomer, unassigned) [6d (15RS), tert-Butyl 7-[2-Oxo-5(R or S)5(4,4-difluoro-3-hydroxy-1n-dec-1(E)-enyl)-1-pyrrolidinyl]heptanoate]","Percent Protection 2 mg/kg, at 1 hr",[1],-5%
same,cytoprotective effect (in words),[1],no (or a negative) cytoprotective effect
same,IC50 against PGE1,[2],3 to 5 µg/mL
same,protection against histamine-induced bronchoconstriction,[3]; [4],14%
"CCCCCCC(F)(F)[C@@H](O)/C=C/[C@H]1CCC(=O)N1CCCCCCC(=O)O (single isomer, unassigned) [7l (15S), 7-[2-Oxo-5(R or S)-5-(4,4-difluoro-3(R or S)-3-hydroxy-1n-dec-1(E)-enyl)-1-pyrrolidinyl]heptanoic Acid]",ED50,[1],0.01 mg/kg
"CCCCCCC(F)(F)[C@@H](O)/C=C/[C@H]1CCC(=O)N1CCCCCCC(=O)OC(C)(C)C (single isomer, unassigned) [6l (15S), tert-Butyl 7-[2-Oxo-5(R or S)-5-(4,4-difluoro-3(R or S)-3hydroxy-1-n-dec-1(E)-enyl)-1-pyrrolidinyl]heptanoate]",inhibition in vivo at 2 mg/kg,[1],9%
"CCCCCCC(F)(F)C(O)/C=C/C1CCC(=O)N1CCCCCCC(=O)O (racemic) [Compound 7, racemic 7-[2-Oxo-5(RS)-(4,4-difluoro-3(RS)-hydroxy-1-n-dec-1(E)-enyl)-1-pyrrolidinyl]heptanoic Acid]",inhibition in vivo at 2 mg/kg,[1],91%
same,ED50,[1],0.0035 mg/kg
same,Peak Time,[1],15 min
"CCCCC[C@H](O)/C=C/[C@H]1[C@H](O)CC(=O)[C@@H]1CCCCCCC(=O)O [PGE1, prostaglandin E1, reference compound]",ED50,[1],0.011 mg/kg
same,Peak Time,[1],5 min
"CCCCCC(O)C=CC1CCC(=O)N1CCCCCCC(=O)OC (stereo not shown) [methyl 7-[2-oxo-5-(3-hydroxy-1-oct-1-enyl)-1-pyrrolidinyl]heptanoate, reference compound]",inhibition in vivo at 2 mg/kg,[1],60%
same,ED50,[1],1.8 mg/kg
same,Peak Time,[1],60 min
"CCCCC(F)(F)C(O)/C=C/C1CCC(=O)N1CCCCCCC(=O)O (racemic) [Compound 14, racemic 7-[2-Oxo-5(RS)-5-(4,4-difluoro-3(RS)-3-hydroxyl-1-n-oct-1(E)-enyl)-1-pyrrolidinyl]heptanoic Acid]",ED50,[1],0.22 mg/kg
same,Peak Time,[1],60 min
"CCCCCCC(F)(F)C(O)C=CC1CCC(=O)N1CCCCCCC(=O)OC(C)(C)C (single isomer, unassigned) [6l (15RS), tert-Butyl 7-[2-Oxo-5(R or S)5(4,4-difluoro-3-hydroxy-1n-dec-1(E)-enyl)-1-pyrrolidinyl]heptanoate]","Percent Protection 2 mg/kg, at 1 hr",[1],59%
same,protection against histamine-induced bronchoconstriction,[3]; [4],39%
"CCCCCCC(F)(F)[C@H](O)/C=C/[C@H]1CCC(=O)N1CCCCCCC(=O)OC(C)(C)C (single isomer, unassigned) [6l (15R), tert-Butyl 7-[2-Oxo-5(R or S)-5-(4,4-difluoro-3(R or S)-3hydroxy-1-n-dec-1(E)-enyl)-1-pyrrolidinyl]heptanoate]",inhibition in vivo at 2 mg/kg,[1],59%
CCCCC(F)(F)C(O)/C=C/C1CCC(=O)N1CCCCCCC(=O)OC (stereo not shown) [Compound 15],inhibition in vivo at 2 mg/kg,[1],88%
same,ED50,[1],0.025 mg/kg
same,Peak Time,[1],15 min
"CCCCCCC(F)(F)C(O)/C=C/C1CCC(=O)N1CCCCCCC(=O)OC (racemic) [Compound 8, racemic Methyl 7-[2-Oxo-5(RS)-5-(4,4-difluoro-3(RS)-3-hydroxy-1-n-dec-1-(E)-enyl)-1-pyrrolidinyl]heptanoate]",inhibition in vivo at 2 mg/kg,[1],91%
same,ED50,[1],0.005 mg/kg
same,Peak Time,[1],15 min
same,protection against histamine-induced bronchoconstriction,"[3]; oral 5 mg/kg, at 2 hours",80%
"CCCCCC(O)C=CC1CCC(=O)N1CCCCCCC(=O)O (stereo not shown) [7-[2-oxo-5-(3-hydroxy-1-oct-1-enyl)-1-pyrrolidinyl]heptanoic acids, reference compound]",inhibition in vivo at 2 mg/kg,[1],40%
same,ED50,[1],3 mg/kg
same,Peak Time,[1],60 min
O=C(O)CCCCCCN1C(=O)CCC1/C=C/C(O)C(F)(F)c1ccccc1 (racemic) [Compound 22],inhibition in vivo at 2 mg/kg,[1],82%
